Experimental data: the kinase profiling compilation of Christmann-Franck et al. (2016)

Columns and labels:
Assay in all cases: radiometric filter-binding kinase assay, Kinase HotSpot
Details in all cases: compound 0.5 µM; ATP 10 µM
DAPK1 (human) = DAPK1 (human) (UniProt P53355)
PRKCI (human) = PRKCI (human) (UniProt P41743)
PAK4 (human) = PAK4 (human) (UniProt O96013)
KDR (human) = KDR (human) (UniProt P35968)
PAK2 (human) = PAK2 (human) (UniProt Q13177)
TEC (human) = TEC (human) (UniProt P42680)
HIPK4 (human) = HIPK4 (human) (UniProt Q8NE63)
NEK2 (human) = NEK2 (human) (UniProt P51955)
PIM3 (human) = PIM3 (human) (UniProt Q86V86)
WEE1 (human) = WEE1 (human) (UniProt P30291)
MAPK12 (human) = MAPK12 (human) (UniProt P53778)
BTK (human) = BTK (human) (UniProt Q06187)
CSK (human) = CSK (human) (UniProt P41240)
ZAP70 (human) = ZAP70 (human) (UniProt P43403)
ACVR1B (human) = ACVR1B (human) (UniProt P36896)
ULK1 (human) = ULK1 (human) (UniProt O75385)
CAMK1G (human) = CAMK1G (human) (UniProt Q96NX5)
CDK1 CCNA2 (human) = CDK1 CCNA2 (human) (UniProt P06493+P20248)
RAF1 (human) = RAF1 (human) (UniProt P04049)
PAK7 (human) = PAK7 (human) (UniProt Q9P286)
EPHB1 (human) = EPHB1 (human) (UniProt P54762)
SGK3 (human) = SGK3 (human) (UniProt Q96BR1)
TEK (human) = TEK (human) (UniProt Q02763)
CAMK4 (human) = CAMK4 (human) (UniProt Q16566)
CSNK2A1 (human) = CSNK2A1 (human) (UniProt P68400)
PRKCB2 (human) = PRKCB2 (human) (UniProt P05771)
NTRK2 (human) = NTRK2 (human) (UniProt Q16620)
IKBKB (human) = IKBKB (human) (UniProt O14920)
SYK (human) = SYK (human) (UniProt P43405)
RET (human) = RET (human) (UniProt P07949)
STK3 (human) = STK3 (human) (UniProt Q13188)
IRAK4 (human) = IRAK4 (human) (UniProt Q9NWZ3)
RPS6KA3 KD1 KD2 (human) = RPS6KA3 KD1 KD2 (human) (UniProt P51812)
NTRK3 (human) = NTRK3 (human) (UniProt Q16288)
GRK4 (human) = GRK4 (human) (UniProt P32298)
MAPK1 (human) = MAPK1 (human) (UniProt P28482)
AURKA (human) = AURKA (human) (UniProt O14965)
MAP4K5 (human) = MAP4K5 (human) (UniProt Q9Y4K4)
FLT1 (human) = FLT1 (human) (UniProt P17948)
IKBKE (human) = IKBKE (human) (UniProt Q14164)
MAPK14 (human) = MAPK14 (human) (UniProt Q16539)
FES (human) = FES (human) (UniProt P07332)
Sequence of FES (human) (P07332 whole entry, looked up): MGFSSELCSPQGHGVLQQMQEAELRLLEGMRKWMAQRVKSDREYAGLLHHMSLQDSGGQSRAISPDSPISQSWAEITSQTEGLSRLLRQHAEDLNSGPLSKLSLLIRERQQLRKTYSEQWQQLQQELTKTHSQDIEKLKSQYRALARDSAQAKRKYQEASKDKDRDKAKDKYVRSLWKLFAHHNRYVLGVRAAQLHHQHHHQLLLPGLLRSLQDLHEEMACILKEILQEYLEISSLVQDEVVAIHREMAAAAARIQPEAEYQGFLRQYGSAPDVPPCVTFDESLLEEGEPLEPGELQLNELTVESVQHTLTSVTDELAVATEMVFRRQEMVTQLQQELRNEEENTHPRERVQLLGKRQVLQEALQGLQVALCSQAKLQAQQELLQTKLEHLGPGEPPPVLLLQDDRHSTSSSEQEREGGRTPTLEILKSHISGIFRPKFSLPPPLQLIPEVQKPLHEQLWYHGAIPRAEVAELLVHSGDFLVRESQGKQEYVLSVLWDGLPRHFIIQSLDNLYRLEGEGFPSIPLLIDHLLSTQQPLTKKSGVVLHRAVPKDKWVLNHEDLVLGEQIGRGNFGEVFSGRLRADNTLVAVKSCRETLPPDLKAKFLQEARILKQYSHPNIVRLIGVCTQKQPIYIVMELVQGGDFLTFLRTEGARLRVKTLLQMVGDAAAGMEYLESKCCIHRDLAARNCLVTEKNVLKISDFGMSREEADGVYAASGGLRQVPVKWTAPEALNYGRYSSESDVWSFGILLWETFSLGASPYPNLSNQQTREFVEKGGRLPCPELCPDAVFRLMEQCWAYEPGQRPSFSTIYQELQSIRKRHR

Sequence of RAF1 (human) (P04049 whole entry, looked up): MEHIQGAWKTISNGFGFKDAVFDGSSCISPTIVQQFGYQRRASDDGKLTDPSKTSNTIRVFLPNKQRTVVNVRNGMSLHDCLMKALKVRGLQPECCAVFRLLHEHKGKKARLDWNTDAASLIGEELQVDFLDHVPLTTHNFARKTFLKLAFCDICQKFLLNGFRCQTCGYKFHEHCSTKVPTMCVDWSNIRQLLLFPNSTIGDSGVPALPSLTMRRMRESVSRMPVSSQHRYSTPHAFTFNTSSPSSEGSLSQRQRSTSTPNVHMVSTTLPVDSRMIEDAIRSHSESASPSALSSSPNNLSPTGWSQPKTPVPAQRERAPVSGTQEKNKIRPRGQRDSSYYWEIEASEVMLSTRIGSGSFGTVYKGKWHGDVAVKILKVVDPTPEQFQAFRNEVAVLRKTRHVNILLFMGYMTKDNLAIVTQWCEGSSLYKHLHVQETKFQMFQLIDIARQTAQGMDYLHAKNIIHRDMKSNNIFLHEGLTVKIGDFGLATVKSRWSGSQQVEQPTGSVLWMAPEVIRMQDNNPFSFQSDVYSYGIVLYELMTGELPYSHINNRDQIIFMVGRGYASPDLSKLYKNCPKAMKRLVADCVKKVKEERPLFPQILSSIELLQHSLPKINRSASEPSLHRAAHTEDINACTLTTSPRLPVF
Sequence of CDK1 CCNA2 (human) (P06493 whole entry, looked up): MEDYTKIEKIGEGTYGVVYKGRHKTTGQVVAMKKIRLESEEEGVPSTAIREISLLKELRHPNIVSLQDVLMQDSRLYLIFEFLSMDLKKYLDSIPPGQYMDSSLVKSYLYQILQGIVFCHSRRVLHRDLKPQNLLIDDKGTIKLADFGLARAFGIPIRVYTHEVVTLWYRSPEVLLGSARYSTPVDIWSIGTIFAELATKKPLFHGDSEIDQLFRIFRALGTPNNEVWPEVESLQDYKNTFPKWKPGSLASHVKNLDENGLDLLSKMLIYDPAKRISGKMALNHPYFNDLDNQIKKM
Sequence of CDK1 CCNA2 (human) (P20248 whole entry, looked up): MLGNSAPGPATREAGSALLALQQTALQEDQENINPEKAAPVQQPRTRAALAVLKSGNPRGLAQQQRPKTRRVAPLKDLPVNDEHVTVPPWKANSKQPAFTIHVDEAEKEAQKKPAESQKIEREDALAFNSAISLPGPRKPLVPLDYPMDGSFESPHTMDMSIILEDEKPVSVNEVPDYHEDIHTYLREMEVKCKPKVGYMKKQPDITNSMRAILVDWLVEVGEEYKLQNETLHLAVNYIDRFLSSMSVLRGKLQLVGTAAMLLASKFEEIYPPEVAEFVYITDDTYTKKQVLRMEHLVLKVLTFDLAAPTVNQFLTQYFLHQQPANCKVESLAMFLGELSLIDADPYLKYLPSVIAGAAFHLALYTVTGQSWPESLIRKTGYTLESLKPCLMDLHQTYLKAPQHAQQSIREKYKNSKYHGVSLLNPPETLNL
Sequence of PRKCI (human) (P41743 whole entry, looked up): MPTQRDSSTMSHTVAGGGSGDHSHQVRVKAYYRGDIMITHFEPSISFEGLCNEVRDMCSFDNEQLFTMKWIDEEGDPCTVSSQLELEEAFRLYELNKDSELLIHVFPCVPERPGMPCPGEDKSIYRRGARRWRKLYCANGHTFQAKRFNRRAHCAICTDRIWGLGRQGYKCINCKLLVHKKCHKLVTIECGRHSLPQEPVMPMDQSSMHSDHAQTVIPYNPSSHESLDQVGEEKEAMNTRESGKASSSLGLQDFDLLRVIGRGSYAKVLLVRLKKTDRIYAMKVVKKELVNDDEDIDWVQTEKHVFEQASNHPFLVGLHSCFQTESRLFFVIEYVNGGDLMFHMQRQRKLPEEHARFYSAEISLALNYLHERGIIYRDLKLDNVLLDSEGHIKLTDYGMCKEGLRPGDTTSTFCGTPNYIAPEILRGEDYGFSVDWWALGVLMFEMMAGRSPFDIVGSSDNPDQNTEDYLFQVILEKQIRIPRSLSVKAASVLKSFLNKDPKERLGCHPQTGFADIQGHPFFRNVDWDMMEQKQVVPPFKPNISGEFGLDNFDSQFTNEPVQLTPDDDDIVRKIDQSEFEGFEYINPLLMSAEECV
Sequence of NEK2 (human) (P51955 whole entry, looked up): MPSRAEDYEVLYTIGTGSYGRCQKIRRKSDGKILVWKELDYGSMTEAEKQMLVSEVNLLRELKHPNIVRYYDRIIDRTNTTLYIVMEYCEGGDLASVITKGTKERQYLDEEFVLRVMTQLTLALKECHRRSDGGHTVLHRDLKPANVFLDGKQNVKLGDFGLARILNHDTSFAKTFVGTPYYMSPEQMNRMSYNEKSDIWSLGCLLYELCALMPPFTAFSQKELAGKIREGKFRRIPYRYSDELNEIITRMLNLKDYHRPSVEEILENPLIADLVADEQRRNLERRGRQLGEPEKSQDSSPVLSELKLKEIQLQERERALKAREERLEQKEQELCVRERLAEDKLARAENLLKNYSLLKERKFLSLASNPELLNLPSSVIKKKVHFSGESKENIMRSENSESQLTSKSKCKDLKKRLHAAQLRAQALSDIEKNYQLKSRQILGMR
Sequence of EPHB1 (human) (P54762 whole entry, looked up): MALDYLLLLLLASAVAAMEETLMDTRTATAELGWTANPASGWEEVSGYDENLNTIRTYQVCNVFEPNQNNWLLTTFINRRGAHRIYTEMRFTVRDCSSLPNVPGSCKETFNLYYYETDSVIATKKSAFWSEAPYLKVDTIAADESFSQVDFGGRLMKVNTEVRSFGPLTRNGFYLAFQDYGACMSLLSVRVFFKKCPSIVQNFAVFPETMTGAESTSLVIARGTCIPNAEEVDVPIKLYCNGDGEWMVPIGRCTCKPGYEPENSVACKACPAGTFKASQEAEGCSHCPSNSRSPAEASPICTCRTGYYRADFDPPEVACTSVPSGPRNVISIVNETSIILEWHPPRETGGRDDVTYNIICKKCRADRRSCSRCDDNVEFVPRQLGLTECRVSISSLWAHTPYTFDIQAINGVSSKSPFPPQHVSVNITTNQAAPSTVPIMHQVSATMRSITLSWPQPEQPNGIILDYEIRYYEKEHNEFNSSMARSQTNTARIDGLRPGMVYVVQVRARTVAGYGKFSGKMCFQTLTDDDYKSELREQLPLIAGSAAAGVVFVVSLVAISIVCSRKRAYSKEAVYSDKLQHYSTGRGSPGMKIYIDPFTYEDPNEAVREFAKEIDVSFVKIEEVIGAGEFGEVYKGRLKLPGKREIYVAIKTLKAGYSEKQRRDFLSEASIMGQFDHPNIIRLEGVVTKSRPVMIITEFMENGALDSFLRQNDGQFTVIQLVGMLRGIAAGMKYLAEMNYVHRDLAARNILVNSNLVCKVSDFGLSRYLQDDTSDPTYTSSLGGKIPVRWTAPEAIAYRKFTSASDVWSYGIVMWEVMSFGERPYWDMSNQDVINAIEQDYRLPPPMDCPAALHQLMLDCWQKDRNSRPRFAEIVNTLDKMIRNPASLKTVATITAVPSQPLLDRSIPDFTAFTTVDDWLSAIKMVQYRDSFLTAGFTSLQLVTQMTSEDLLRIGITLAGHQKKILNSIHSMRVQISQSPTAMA
Sequence of BTK (human) (Q06187 whole entry, looked up): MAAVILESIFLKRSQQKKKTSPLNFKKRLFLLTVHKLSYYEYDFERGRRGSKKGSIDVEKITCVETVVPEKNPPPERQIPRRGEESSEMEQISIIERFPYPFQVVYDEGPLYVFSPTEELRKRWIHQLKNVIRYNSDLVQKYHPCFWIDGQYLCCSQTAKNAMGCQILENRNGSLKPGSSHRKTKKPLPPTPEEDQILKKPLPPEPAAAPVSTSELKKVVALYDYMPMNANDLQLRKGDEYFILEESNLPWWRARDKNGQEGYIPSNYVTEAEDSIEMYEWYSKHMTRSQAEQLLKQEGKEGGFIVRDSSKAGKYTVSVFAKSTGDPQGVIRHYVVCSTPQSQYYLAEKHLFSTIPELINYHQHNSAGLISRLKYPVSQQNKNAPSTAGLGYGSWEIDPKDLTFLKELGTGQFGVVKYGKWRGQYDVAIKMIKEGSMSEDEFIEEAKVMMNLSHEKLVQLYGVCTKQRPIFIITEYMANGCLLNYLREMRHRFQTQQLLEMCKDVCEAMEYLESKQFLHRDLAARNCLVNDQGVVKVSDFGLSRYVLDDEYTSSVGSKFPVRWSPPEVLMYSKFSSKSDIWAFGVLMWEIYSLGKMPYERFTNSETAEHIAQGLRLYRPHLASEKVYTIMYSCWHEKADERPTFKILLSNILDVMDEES

In the case of `c1ccc2c(-c3ccncc3)c[nH]c2c1`, the residual activity (DAPK1 (human)) is reported as 97.7%, the residual activity (PRKCI (human)) is reported as 82.4% and the residual activity (PAK4 (human)) is reported as 96.7%. For the same molecule, the residual activity (KDR (human)) was 94.2%, the residual activity (PAK2 (human)) was 84% and the residual activity (TEC (human)) was 123%. For the same molecule, the residual activity (HIPK4 (human)) was 93.8%, the residual activity (NEK2 (human)) was 106% and the residual activity (PIM3 (human)) was 103%. The residual activity (WEE1 (human)) was 89.3%, the residual activity (MAPK12 (human)) was 104% and the residual activity (BTK (human)) was 104%. The residual activity (CSK (human)) was 107%, the residual activity (ZAP70 (human)) was 105% and the residual activity (ACVR1B (human)) was 98.8%. The residual activity (ULK1 (human)) was 83.8%, the residual activity (CAMK1G (human)) was 99% and the residual activity (CDK1 CCNA2 (human)) was 90.6%. The residual activity (RAF1 (human)) was 93.2%, the residual activity (PAK7 (human)) was 93.8% and the residual activity (EPHB1 (human)) was 108%. For the same molecule, the residual activity (SGK3 (human)) was 92.8%, the residual activity (TEK (human)) was 101% and the residual activity (CAMK4 (human)) was 101%. The residual activity (CSNK2A1 (human)) was 95%, the residual activity (PRKCB2 (human)) was 89.5% and the residual activity (NTRK2 (human)) was 107%. For the same molecule, the residual activity (IKBKB (human)) was 102%, the residual activity (SYK (human)) was 98.6% and the residual activity (RET (human)) was 97.3%. It also gave a residual activity (STK3 (human)) of 112%, a residual activity (IRAK4 (human)) of 109% and a residual activity (RPS6KA3 KD1 KD2 (human)) of 97.4%. The residual activity (NTRK3 (human)) was 100%, the residual activity (GRK4 (human)) was 94.9% and the residual activity (MAPK1 (human)) was 100%. The residual activity (AURKA (human)) was 78%, the residual activity (MAP4K5 (human)) was 106% and the residual activity (FLT1 (human)) was 97.9%. The residual activity (IKBKE (human)) was 96.4%, the residual activity (MAPK14 (human)) was 104% and the residual activity (FES (human)) was 105%.

`Cn1c2ccccc2c2c3c(c4c5ccccc5n(CCC#N)c4c21)CNC3=O` showed a residual activity (DAPK1 (human)) of 102%, a residual activity (PRKCI (human)) of 91.6% and a residual activity (PAK4 (human)) of 44%. It also gave a residual activity (KDR (human)) of 57%, a residual activity (PAK2 (human)) of 91.7% and a residual activity (TEC (human)) of 96.4%. The residual activity (HIPK4 (human)) was 103%, the residual activity (NEK2 (human)) was 89.9% and the residual activity (PIM3 (human)) was 17.3%. The residual activity (WEE1 (human)) was 85.4%, the residual activity (MAPK12 (human)) was 85.8% and the residual activity (BTK (human)) was 22%. It also gave a residual activity (CSK (human)) of 81%, a residual activity (ZAP70 (human)) of 77.7% and a residual activity (ACVR1B (human)) of 115%. For the same molecule, the residual activity (ULK1 (human)) was 106%, the residual activity (CAMK1G (human)) was 101% and the residual activity (CDK1 CCNA2 (human)) was 55.5%. The residual activity (RAF1 (human)) was 111%, the residual activity (PAK7 (human)) was 37.1% and the residual activity (EPHB1 (human)) was 95%. For the same molecule, the residual activity (SGK3 (human)) was 112%, the residual activity (TEK (human)) was 104% and the residual activity (CAMK4 (human)) was 88.1%. For the same molecule, the residual activity (CSNK2A1 (human)) was 73.1%, the residual activity (PRKCB2 (human)) was 9.73% and the residual activity (NTRK2 (human)) was 0.815%. It also gave a residual activity (IKBKB (human)) of 90.4%, a residual activity (SYK (human)) of 14.6% and a residual activity (RET (human)) of 0.516%. It also gave a residual activity (STK3 (human)) of 3.07%, a residual activity (IRAK4 (human)) of 63.5% and a residual activity (RPS6KA3 KD1 KD2 (human)) of 5.93%. For the same molecule, the residual activity (NTRK3 (human)) was 0.198%, the residual activity (GRK4 (human)) was 75.1% and the residual activity (MAPK1 (human)) was 104%. It also gave a residual activity (AURKA (human)) of 56.8%, a residual activity (MAP4K5 (human)) of 4.18% and a residual activity (FLT1 (human)) of 63.6%. The residual activity (IKBKE (human)) was 69.4%, the residual activity (MAPK14 (human)) was 93.5% and the residual activity (FES (human)) was 78.4%.

Work on `Ic1cccc(CSc2nnc(-c3ccncc3)o2)c1` yielded a residual activity (DAPK1 (human)) of 90.3%, a residual activity (PRKCI (human)) of 96.4% and a residual activity (PAK4 (human)) of 83.6%. It also gave a residual activity (KDR (human)) of 78.1%, a residual activity (PAK2 (human)) of 97.6% and a residual activity (TEC (human)) of 106%. The residual activity (HIPK4 (human)) was 98.8%, the residual activity (NEK2 (human)) was 100% and the residual activity (PIM3 (human)) was 106%. For the same molecule, the residual activity (WEE1 (human)) was 97.2%, the residual activity (MAPK12 (human)) was 93% and the residual activity (BTK (human)) was 95.6%. For the same molecule, the residual activity (CSK (human)) was 101%, the residual activity (ZAP70 (human)) was 107% and the residual activity (ACVR1B (human)) was 102%. It also gave a residual activity (ULK1 (human)) of 97.1%, a residual activity (CAMK1G (human)) of 95.9% and a residual activity (CDK1 CCNA2 (human)) of 99.8%. It also gave a residual activity (RAF1 (human)) of 92.8%, a residual activity (PAK7 (human)) of 99.3% and a residual activity (EPHB1 (human)) of 101%. The residual activity (SGK3 (human)) was 98.5%, the residual activity (TEK (human)) was 92.6% and the residual activity (CAMK4 (human)) was 91.6%. The residual activity (CSNK2A1 (human)) was 97.3%, the residual activity (PRKCB2 (human)) was 91.2% and the residual activity (NTRK2 (human)) was 91.4%. It also gave a residual activity (IKBKB (human)) of 89.3%, a residual activity (SYK (human)) of 92.2% and a residual activity (RET (human)) of 103%. For the same molecule, the residual activity (STK3 (human)) was 110%, the residual activity (IRAK4 (human)) was 105% and the residual activity (RPS6KA3 KD1 KD2 (human)) was 96.4%. The residual activity (NTRK3 (human)) was 104%, the residual activity (GRK4 (human)) was 99.9% and the residual activity (MAPK1 (human)) was 107%. It also gave a residual activity (AURKA (human)) of 95.8%, a residual activity (MAP4K5 (human)) of 99.5% and a residual activity (FLT1 (human)) of 91%. For the same molecule, the residual activity (IKBKE (human)) was 102%, the residual activity (MAPK14 (human)) was 99.3% and the residual activity (FES (human)) was 98%.

`O=C1NC(=O)c2c1c1c3ccccc3[nH]c1n1cncc21` gave a residual activity (DAPK1 (human)) of 26.6%, a residual activity (PRKCI (human)) of 82.3% and a residual activity (PAK4 (human)) of 97.1%. It also gave a residual activity (KDR (human)) of 66.6%, a residual activity (PAK2 (human)) of 99% and a residual activity (TEC (human)) of 96.7%. It also gave a residual activity (HIPK4 (human)) of 98.5%, a residual activity (NEK2 (human)) of 87.5% and a residual activity (PIM3 (human)) of 4.48%. It also gave a residual activity (WEE1 (human)) of 94.7%, a residual activity (MAPK12 (human)) of 85.9% and a residual activity (BTK (human)) of 83.9%. The residual activity (CSK (human)) was 83.3%, the residual activity (ZAP70 (human)) was 87.8% and the residual activity (ACVR1B (human)) was 103%. The residual activity (ULK1 (human)) was 97.2%, the residual activity (CAMK1G (human)) was 94.7% and the residual activity (CDK1 CCNA2 (human)) was 94.8%. It also gave a residual activity (RAF1 (human)) of 108%, a residual activity (PAK7 (human)) of 80% and a residual activity (EPHB1 (human)) of 94%. For the same molecule, the residual activity (SGK3 (human)) was 111%, the residual activity (TEK (human)) was 78.9% and the residual activity (CAMK4 (human)) was 89.8%. For the same molecule, the residual activity (CSNK2A1 (human)) was 52.6%, the residual activity (PRKCB2 (human)) was 94.7% and the residual activity (NTRK2 (human)) was 49%. It also gave a residual activity (IKBKB (human)) of 95.9%, a residual activity (SYK (human)) of 84.9% and a residual activity (RET (human)) of 42%. The residual activity (STK3 (human)) was 41%, the residual activity (IRAK4 (human)) was 84.8% and the residual activity (RPS6KA3 KD1 KD2 (human)) was 47.4%. The residual activity (NTRK3 (human)) was 26.1%, the residual activity (GRK4 (human)) was 101% and the residual activity (MAPK1 (human)) was 125%. For the same molecule, the residual activity (AURKA (human)) was 34.8%, the residual activity (MAP4K5 (human)) was 13.5% and the residual activity (FLT1 (human)) was 58%. For the same molecule, the residual activity (IKBKE (human)) was 103%, the residual activity (MAPK14 (human)) was 101% and the residual activity (FES (human)) was 117%.
